This note sets out measurements from patent US8247351B2, “Insecticidal compositions having improved effect” (Bayer Cropscience AG, priority 2005, dated 2012).

What all share (format): in vivo
Experiment [1] has as its system Aphis gossypii. The experiment is described as follows: Aphis gossypii test, Example E (sprayed to runoff, ammonium salt boosting). As for the experimental part: (§1) Solvent: 7 parts by weight dimethylformamide
(§2) Emulsifier: 2 parts by weight alkylaryl polyglycol ether
An appropriate preparation of active ingredient is prepared by mixing 1 part by weight of active ingredient with the stated amounts of solvent and emulsifier and diluting the concentrate with emulsifier-containing water to the desired concentration. For the application with ammonium salts or phosphonium salts, these salts are added in a concentration of 1000 ppm to the spray liquor.
(§3) Cotton plants (Gossypium hirsutum) heavily infested by the cotton aphid (Aphis gossypii) are sprayed to runoff with the preparation of active ingredient at the desired concentration.
(§4) After the desired time the destruction in % is ascertained. 100% means that all of the aphids have been killed; 0% means than no aphids were killed.

The subject of experiment [2] is Aphis gossypii. The experiment is described as follows: Aphis gossypii test, Example G (sprayed to runoff, ammonium salt plus penetrant). As for the experimental part:
as §1, §2
An appropriate preparation of active ingredient is prepared by mixing 1 part by weight of active ingredient with the stated amounts of solvent and emulsifier and diluting the concentrate with emulsifier-containing water to the desired concentration. For the application with ammonium salts or phosphonium salts and penetrants (rapeseed oil methyl esters 500 EW), they are each added in a concentration of 1000 ppm a.i. to the spray liquor.
as §3, §4

The test system of experiment [3] is Myzus persicae. The experiment is described as follows: Myzus persicae test, Example D (sprayed to runoff, ammonium salt boosting). As for the experimental part:
as §1, §2
An appropriate preparation of active ingredient is prepared by mixing 1 part by weight of active ingredient with the stated amounts of solvent and emulsifier and diluting the concentrate with water to the desired concentration. For the application with ammonium salts or phosphonium salts, these salts are added in a concentration of 1000 ppm to the spray liquor.
Paprika plants (Capsicum annum) heavily infested by the green peach aphid (Myzus persicae) are treated by being. sprayed to runoff with the preparation of active ingredient at the desired concentration. After the desired time the destruction in % is ascertained. 100% means that all of the animals have been killed; 0% means that no animals have been killed.

For experiment [4], the system named is Myzus persicae. Briefly: Myzus persicae test, Example F (sprayed to runoff, ammonium salt plus penetrant). How it is done: as §1, §2
An appropriate preparation of active ingredient is prepared by mixing 1 part by weight of active ingredient with the stated amounts of solvent and emulsifier and diluting the concentrate with water to the desired concentration. For the application with ammonium salts or phosphonium salts and penetrant (rapeseed oil methyl ester 500 EW), they are each added in a concentration of 1000 ppm to the spray liquor.
After the desired time the destruction in % is ascertained. 100% means that all of the animals have been killed; 0% means that no animals have been killed.

[5] abbreviates: 0.8 ppm active ingredient, +AS (1000 ppm).
[6] abbreviates: 0.8 ppm active ingredient, no additive.
Where [7] appears, read: 4 ppm active ingredient, +AS (1000 ppm).
[8] abbreviates: 4 ppm active ingredient, no additive.
[9] abbreviates: 4 ppm active ingredient, +RME (1000 ppm).
The mark [10] stands for this setting: 4 ppm active ingredient, +RME +AS (each 1000 ppm).
Where [11] appears, read: 20 ppm active ingredient, +AS (1000 ppm).
The mark [12] stands for this setting: 20 ppm active ingredient, no additive.
Where [13] appears, read: 0.8 ppm active ingredient, +RME (1000 ppm).
The mark [14] stands for this setting: 0.8 ppm active ingredient, +RME +AS (each 1000 ppm).
The mark [15] stands for this setting: 20 ppm active ingredient, +RME (1000 ppm).
The mark [16] stands for this setting: 20 ppm active ingredient, +RME +AS (each 1000 ppm).

On to `CO[C@@H]1CCC[C@]2(C1)NC(=O)C(c1c(C)cc(C)cc1C)=C2O` [Example I-1-a-6], for which the “Degree of destruction/% after 6 days” value in experiment [1] (setting [5]) is 30%; in experiment [1] (setting [6]), 15%; in experiment [1] (setting [7]), 55%; in experiment [1] (setting [8]), 25%; in experiment [2] (setting [7]) it was 55%; in experiment [2] (setting [9]), 50%. The “Degree of destruction/% after 6 days” value worked out at 80% in experiment [2] (setting [10]) and 25% in experiment [2] (setting [8]).
With `Cc1cc(Br)cc(C)c1-c1c(O)c(C)c(-c2ccccn2)oc1=O` [Example I-4-a-3], the “Degree of destruction/% after 6 days” value in experiment [3] (setting [7]) was 70%; in experiment [3] (setting [8]) it was 5%; in experiment [3] (setting [11]), 85%; in experiment [3] (setting [12]) it was 40%; in experiment [1] (setting [5]) it was 40%; in experiment [1] (setting [6]), 0%. Besides, the “Degree of destruction/% after 6 days” value was 70% in experiment [1] (setting [7]); 25% in experiment [1] (setting [8]); 40% in experiment [2] (setting [5]); 0% in experiment [2] (setting [13]); 80% in experiment [2] (setting [14]); 0% in experiment [2] (setting [6]). Moreover, the “Degree of destruction/% after 6 days” value in experiment [4] (setting [5]) stood at 5%; in experiment [4] (setting [13]), 20%; in experiment [4] (setting [14]) it was 98%; in experiment [4] (setting [6]) it was 0%.
Turning to `Cc1ccccc1-c1c(O)c(C)c(-c2ccccn2)oc1=O` [Example I-4-a-2], the “Degree of destruction/% after 6 days” value came to 60% in experiment [1] (setting [7]); 50% in experiment [1] (setting [8]); 60% in experiment [2] (setting [7]); 0% in experiment [2] (setting [9]); 65% in experiment [2] (setting [10]); 5% in experiment [2] (setting [8]).
In the case of `Cc1ccc(-c2ccc(Cl)cc2)cc1C1=C(O)C(C)(C)OC1=O` [Example I-2-a-3], the “Degree of destruction/% after 6 days” value in experiment [3] (setting [11]) is recorded as 15%; in experiment [3] (setting [12]), 0%; in experiment [1] (setting [11]) it was 30%; in experiment [1] (setting [12]), 0%; in experiment [2] (setting [7]), 5%; in experiment [2] (setting [9]), 0%. Further, the “Degree of destruction/% after 6 days” value in experiment [2] (setting [10]) is recorded as 15%; in experiment [2] (setting [8]), 0%; in experiment [2] (setting [11]), 30%; in experiment [2] (setting [15]), 0%; in experiment [2] (setting [16]), 65%; in experiment [2] (setting [12]), 0%. Besides, the “Degree of destruction/% after 6 days” value in experiment [4] (setting [11]) turned out to be 15%; in experiment [4] (setting [15]) it was 35%; in experiment [4] (setting [16]), 80%; in experiment [4] (setting [12]), 0%.
On to `Cc1ccc(-c2ccc(Cl)cc2)cc1C1=C(O)C2(C)CCCCC2OC1=O` (stereo not drawn) [Example I-10-a-2], for which the “Degree of destruction/% after 6 days” value in experiment [1] (setting [7]) is listed as 50%; in experiment [1] (setting [8]), 0%; in experiment [1] (setting [11]) it was 80%; in experiment [1] (setting [12]) it was 10%; in experiment [4] (setting [11]) it was 10%; in experiment [4] (setting [15]) it was 0%. The “Degree of destruction/% after 6 days” value worked out at 65% in experiment [4] (setting [16]) and 5% in experiment [4] (setting [12]).
For the compound `COC1CCC2(CC1)OC(=O)C(c1c(C)cc(C)cc1C)=C2O` (stereo not drawn) [Example I-2-a-1], the “Degree of destruction/% after 6 days” value was 65% in experiment [3] (setting [5]); 20% in experiment [3] (setting [6]); 98% in experiment [3] (setting [7]); 90% in experiment [3] (setting [8]); 85% in experiment [1] (setting [5]); 0% in experiment [1] (setting [6]). For the same compound, the “Degree of destruction/% after 6 days” value in experiment [1] (setting [7]) is given as 95%; in experiment [1] (setting [8]), 80%; in experiment [4] (setting [5]), 65%; in experiment [4] (setting [13]), 95%; in experiment [4] (setting [14]) it was 100%; in experiment [4] (setting [6]) it was 20%.
As for `Cc1ccc(-c2ccc(Cl)cc2)cc1C1=C(O)C(C)(C)NC1=O` [Example I-1-a-3], the “Degree of destruction/% after 6 days” value was 90% in experiment [3] (setting [7]); 0% in experiment [3] (setting [8]); 75% in experiment [3] (setting [11]); 60% in experiment [3] (setting [12]); 35% in experiment [1] (setting [7]); 5% in experiment [1] (setting [8]). Besides, the “Degree of destruction/% after 6 days” value in experiment [1] (setting [11]) is on record as 80%; in experiment [1] (setting [12]), 20%; in experiment [4] (setting [7]) it was 20%; in experiment [4] (setting [9]), 10%; in experiment [4] (setting [10]), 90%; in experiment [4] (setting [8]) it was 0%.
For the compound `COCC1CCC2(CC1)NC(=O)C(c1c(C)cc(Cl)cc1Cl)=C2O` (stereo not drawn) [Example I-1-a-16], the “Degree of destruction/% after 6 days” value was determined as 75% in experiment [1] (setting [7]); 40% in experiment [1] (setting [8]); 85% in experiment [1] (setting [11]); 75% in experiment [1] (setting [12]); 85% in experiment [2] (setting [11]); 95% in experiment [2] (setting [15]). Besides, the entries for the “Degree of destruction/% after 6 days” value in experiment [2] (setting [16]) and in experiment [2] (setting [12]) were 99% and 75%, respectively.
As for `COC1CCC2(CC1)NC(=O)C(c1cc(C)c(Cl)cc1C)=C2O` (stereo not drawn) [Example I-1-a-10], the “Degree of destruction/% after 6 days” value worked out at 35% in experiment [3] (setting [7]); 0% in experiment [3] (setting [8]); 85% in experiment [3] (setting [11]); 40% in experiment [3] (setting [12]); 65% in experiment [1] (setting [7]); 20% in experiment [1] (setting [8]). For the same compound, the “Degree of destruction/% after 6 days” value is 75% in experiment [1] (setting [11]); 40% in experiment [1] (setting [12]); 35% in experiment [4] (setting [7]); 75% in experiment [4] (setting [9]); 85% in experiment [4] (setting [10]); 0% in experiment [4] (setting [8]).
With `COCCC1CCC2(CC1)NC(=O)C(c1c(C)cc(C)cc1C)=C2O` (stereo not drawn) [Example I-1-a-17], the “Degree of destruction/% after 6 days” value in experiment [1] (setting [7]) is 80%; in experiment [1] (setting [8]), 50%; in experiment [1] (setting [11]), 85%; in experiment [1] (setting [12]) it was 70%.
`COCC1CCC2(CC1)NC(=O)C(c1c(C)cc(Cl)cc1C)=C2O` (stereo not drawn) [Example I-1-a-15]: the “Degree of destruction/% after 6 days” value is given as 75% in experiment [1] (setting [7]); 40% in experiment [1] (setting [8]); 95% in experiment [1] (setting [11]); 80% in experiment [1] (setting [12]); 0% in experiment [4] (setting [5]); 50% in experiment [4] (setting [13]). The “Degree of destruction/% after 6 days” value in experiment [4] (setting [14]) was found to be 80%; in experiment [4] (setting [6]), 15%.
As for `COCC1CCC2(CC1)NC(=O)C(c1c(C)cc(C)cc1C)=C2O` (stereo not drawn) [Example I-1-a-14], the “Degree of destruction/% after 6 days” value is 40% in experiment [1] (setting [5]), 25% in experiment [1] (setting [6]), 90% in experiment [1] (setting [7]) and 55% in experiment [1] (setting [8]).
Turning to `COc1cc(C)cc(C)c1-c1c(O)sc(-c2ccc(F)cc2)nc1=O` [Example I-5-a-1], the “Degree of destruction/% after 6 days” value in experiment [3] (setting [11]) worked out at 55%; in experiment [3] (setting [12]) it was 0%; in experiment [4] (setting [7]), 5%; in experiment [4] (setting [9]) it was 55%; in experiment [4] (setting [10]) it was 95%; in experiment [4] (setting [8]), 0%.
